Data: publication PMC12070228, “Investigations of Enteric-Coated Tablet Propyl Gallate-Induced Nephrotoxicity in Beagles as well as Human and Dog Renal Proximal Tubule Epithelial Cells” (ACS Pharmacology & Translational Science, 2025)

How the values were obtained:
[1] = system: beagles; experiment: Follow-up 4-week study 003: EC tablets vs PG alone in gelatin capsule, nephrotoxicity; assay type: in vivo, beagle dog; settings: dogs, target PG 200 mg/kg/day once daily for 26 days, data not shown
[2] = system: dog RPTECs; experiment: Cell Titer Glo cell viability assay; assay type: cell-based
Protocol: (§1) Frozen RPTECs vials were removed from liquid nitrogen storage and placed in a 37 °C water bath until the contents were completely thawed. The cells were gently resuspended and dispensed into a cell culture flask at a seeding density of ∼7500 cells/cm^2. The flask was placed in a 37 °C, 5% CO2 incubator. Cell cultures were given fresh medium the following morning and then every other day until the cell culture was approximately 90% confluent. When the cell culture was 90% confluent, medium was removed and the cells were rinsed with warmed PBS. Cells were harvested and split into new flasks based on a cell density of 7500 cells/cm^2. Cells were incubated at 37 °C for 3 days, with fresh medium added each day. Cells were harvested and diluted with growth medium to a density of 200,000 cells/mL. 100 μL of cell suspension per well (20,000 cells/well) was added to a clear-bottom 96-well microplate for luminescence assays. The plated cells were incubated in the 37 °C incubator for 3 days.
(§2) Each test compound (PG, GA, 4OMPG and 4OMGA) was initially reconstituted using DMSO at a concentration of 250 mg/mL. Serial dilutions of each compound were performed to reach concentrations of 4000 μM, 2000 μM, 1000 μM, 500 μM, 250 μM, 125 μM, 62.5 μM, 31.3 μM using warmed fresh supplemented medium with 0.4% (v/v) DMSO for all concentration levels. 100 μL of media containing the compound solution was added to the cells. Final concentrations of the compounds were 2000 μM, 1000 μM, 500 μM, 250 μM, 125 μM, 62.5 μM, 31.3 μM, 15.7 μM. […]
(§3) Cell media were removed and cells were washed twice with 200 μL of PBS buffer per well. […] The plate was gently shaken and incubated in the dark for 30 min and luminescence was measured using a PerkinElmer VICTOR X3 plate reader. […] Luminescence was measured using a PerkinElmer VICTOR X3 plate reader.
(§4) For cell-based assays, data was normalized to the negative control. Cell viability and GSH level were expressed as Cell viability or GSH level=Luminescence(each well)/Luminescence(average of DMSO negative control)

[3] = system: human RPTECs; experiment: Cell Titer Glo cell viability assay; assay type: cell-based; settings: RPTEC, 48 h exposure, estimated
Protocol: as §1, §2, §3, §4

[4] = system: dog RPTECs; experiment: GSH-Glo glutathione assay; assay type: cell-based
Protocol: as §1
(§5) Each test compound (PG, GA, 4OMPG and 4OMGA) was initially reconstituted using DMSO at a concentration of 250 mg/mL. Serial dilutions of each compound were performed to reach concentrations of 4000 μM, 2000 μM, 1000 μM, 500 μM, 250 μM, 125 μM, 62.5 μM, 31.3 μM using warmed fresh supplemented medium with 0.4% (v/v) DMSO for all concentration levels. 100 μL of media containing the compound solution was added to the cells. Final concentrations of the compounds were 2000 μM, 1000 μM, 500 μM, 250 μM, 125 μM, 62.5 μM, 31.3 μM, 15.7 μM. AZ13599185 (tubulysin, 100 or 500 ng/mL) or cisplatin (30 μg/mL) and buthionine sulfoximine (BSO, 200 μM) were used as positive controls for CTG and GSH assays, respectively. 0.2% (v/v) DMSO in medium was used as the control for both assays, corrsponding to the final cocnetration of DMSO in the well. Three replicates for each compound at each concentration were prepared. Six replicates of positive or negative controls were prepared. Cells were incubated at 37 °C for approximately 48 h.
(§6) Cell media were removed and cells were washed twice with 200 μL of PBS buffer per well. CTG and GSH assay reagents were added to the wells and the assays were performed following the protocols of the Promega assay kits. Briefly, to perform the CTG assay, 100 μL of CTG solution was added into each well. The plate was gently shaken and incubated in the dark for 30 min and luminescence was measured using a PerkinElmer VICTOR X3 plate reader. To perform the GSH assay, luciferin-NT substrate and glutathione S-transferase were mixed into the GSH-GLo solution. 100 μL of the mixed solution was added into each well. The plate was gently shaken and incubated in the dark for at least 30 min. 100 μL of Luciferin Detection Reagent was added per well. The plate was gently shaken and incubated in the dark for at least 15 min. Luminescence was measured using a PerkinElmer VICTOR X3 plate reader.
as §4

[5] = system: human RPTECs; experiment: GSH-Glo glutathione assay; assay type: cell-based
Protocol: as §1, §5, §6, §4

[6] = no reference given; cited from earlier work
[7] = Exposure comparison of PG and phase-I and phase-II metabolites in dog and human plasma; settings: oral EC MEDI7219 tablets; samples through 8 h; human PG 800 mg (N = 8), dog PG 200 mg/kg/day (N = 6)
Protocol: Dog blood was collected via jugular vein in potassium (K2) EDTA tubes and processed to plasma. Samples were centrifuged at approximately 3000 rpm for 5 min at approximately 4 °C within 30 min of collection. Plasma samples were acidified with 1% (v/v) formic acid (FA) to avoid degradation of PG and metabolites in plasma within 20 min of the start of centrifugation and then stored frozen (≤-60 °C). Acidified plasma was extracted using internal standard-spiked solution (100 mM ammonium bicarbonate: acetonitrile = 1:4). Samples were then centrifuged to collect supernatant, followed by drying to completion. The dried samples were reconstituted with 200 uL of 0.1% (v/v) formic acid in water. Samples were vortexed and centrifuged before injection. In order to assess potential impact of hemolysis on qualification of PG and its metabolites, hemolyzed plasma was prepared by spiking fully hemolyzed whole blood at an indicated percentage into plasma.
Separations were conducted on a reversed-phase column (Phenomenex, Kinetex F5, 2.6 μm 100 Å, 100 × 4.6 mm) at a flow rate of 0.7 mL/min at 40 °C. Mobile phase A was 0.1% formic acid in water and mobile phase B was 0.1% formic acid in methanol. The samples were analyzed on a SCIEX 6500+ QTRAP under negative ESI mode. The total run time was 5.5 min. Eight calibration standards and three quality control (LQC, MQC and HQC) samples were used for quantification.
The primary metabolites of PG were measured in dog and human plasma following oral administration of EC MEDI7219 tablets to examine a potential mechanism of the PG-mediated renal toxicity in dog and its possible translatability to humans. Plasma concentrations of PG, its phase-I metabolites GA and 4OMGA and phase-II glucuronide and glutathione conjugates were measured. The human and dog samples, collected through 8 h after administration, were analyzed and the results were compared (Figure , Figure S5). Based on allometric scaling method the highest daily dose administered in humans was approximately 8-fold less compared with the dose level tested in dogs.
Human (H) data is in black. Dog (D) data is in red (study 002). Concentration (mM) is in log10 scale. Data was normalized to PG dose (mg/kg/day). N = 8 for human (PG dosed at 800 mg with MEDI7219 tablets). N = 6 for dogs (PG dosed at 200 mg/kg/day). Below LLOQ values were set to 1/2 LLOQ for the calculation.

[8] = ~48 h exposure, normalized to DMSO control

Plasma exposure, humans compared with dogs [7]: comparable between the two species
Compound: CCCOC(=O)c1cc(O)c(O)c(O)c1 [PG, propyl gallate]
Nephrotoxicity / kidney injury [1]: did not result in nephrotoxicity
EC50 ([2]; Canis lupus familiaris, RPTEC, dog RPTECs, 48 h exposure, estimated): ~46.5 µM
Relative difference in sensitivity between human and dog RPTECs ([2]; human EC50 vs dog EC50, cell viability): ~33 fold
EC50 [3]: ~1.53 mM
GSH levels at high concentrations ([4]; ~48 h, high concentrations): reduction of GSH levels
Glutathione (GSH) levels [4, 8]: not in dog cells
GSH levels at high concentrations ([5]; ~48 h, high concentrations): reduction of GSH levels
Glutathione (GSH) levels [5, 8]: induced
Log P [6]: 2.13
